Where two headings read alike, the source gives them in different places.
Key:
BRM = BRM (Homo sapiens, UniProt P51531); test: ATPase catalytic activity assay of BRM (ADP-Glo); assay type: biochemical; conditions: for IC50: read-out: BRM IC50 (μM)*
Experimental: (§1) The ATPase catalytic activity of BRM or BRG-1 was measured by the in vitro biochemical assay using ADP-Glo™ (Promega, V9102). The ADP-Glo™ kinase assay is performed in two steps once the reaction is complete. The first step is to deplete any unconsumed ATP in the reaction. The second step is to convert the reaction product ADP to ATP, which will be utilized by the luciferase to generate luminesce and be detected by a luminescence reader, such as Envision.
(§2) Then following addition of 5 μL of ADP-Glo™ Reagent provided in the kit, the reaction incubates at room temperature for 40 minutes. Then 10 μL of Kinase Detection Reagent provided in the kit is added to convert ADP to ATP, and the reaction incubates at room temperature for 60 minutes. Finally, luminescence measurement is collected with a plate-reading luminometer, such as Envision.
as §1, with “The” for “The ATPase catalytic activity of BRM or BRG-1 was measured by the in vitro biochemical assay using ADP-Glo™ (Promega, V9102). The”

BRG-1 = BRG-1 (Homo sapiens, UniProt P51532); test: ATPase catalytic activity assay of BRG-1 (ADP-Glo); assay type: biochemical; conditions: ATPase catalytic activity, ADP-Glo; for IC50: read-out: BRG1 IC50 (μM)*; for Emax: read-out: BRG1 Max % Inhibition
Experimental: as §1, §2
as §1, with “The” for “The ATPase catalytic activity of BRM or BRG-1 was measured by the in vitro biochemical assay using ADP-Glo™ (Promega, V9102). The”

Sequence of BRG-1 (P51532 whole entry): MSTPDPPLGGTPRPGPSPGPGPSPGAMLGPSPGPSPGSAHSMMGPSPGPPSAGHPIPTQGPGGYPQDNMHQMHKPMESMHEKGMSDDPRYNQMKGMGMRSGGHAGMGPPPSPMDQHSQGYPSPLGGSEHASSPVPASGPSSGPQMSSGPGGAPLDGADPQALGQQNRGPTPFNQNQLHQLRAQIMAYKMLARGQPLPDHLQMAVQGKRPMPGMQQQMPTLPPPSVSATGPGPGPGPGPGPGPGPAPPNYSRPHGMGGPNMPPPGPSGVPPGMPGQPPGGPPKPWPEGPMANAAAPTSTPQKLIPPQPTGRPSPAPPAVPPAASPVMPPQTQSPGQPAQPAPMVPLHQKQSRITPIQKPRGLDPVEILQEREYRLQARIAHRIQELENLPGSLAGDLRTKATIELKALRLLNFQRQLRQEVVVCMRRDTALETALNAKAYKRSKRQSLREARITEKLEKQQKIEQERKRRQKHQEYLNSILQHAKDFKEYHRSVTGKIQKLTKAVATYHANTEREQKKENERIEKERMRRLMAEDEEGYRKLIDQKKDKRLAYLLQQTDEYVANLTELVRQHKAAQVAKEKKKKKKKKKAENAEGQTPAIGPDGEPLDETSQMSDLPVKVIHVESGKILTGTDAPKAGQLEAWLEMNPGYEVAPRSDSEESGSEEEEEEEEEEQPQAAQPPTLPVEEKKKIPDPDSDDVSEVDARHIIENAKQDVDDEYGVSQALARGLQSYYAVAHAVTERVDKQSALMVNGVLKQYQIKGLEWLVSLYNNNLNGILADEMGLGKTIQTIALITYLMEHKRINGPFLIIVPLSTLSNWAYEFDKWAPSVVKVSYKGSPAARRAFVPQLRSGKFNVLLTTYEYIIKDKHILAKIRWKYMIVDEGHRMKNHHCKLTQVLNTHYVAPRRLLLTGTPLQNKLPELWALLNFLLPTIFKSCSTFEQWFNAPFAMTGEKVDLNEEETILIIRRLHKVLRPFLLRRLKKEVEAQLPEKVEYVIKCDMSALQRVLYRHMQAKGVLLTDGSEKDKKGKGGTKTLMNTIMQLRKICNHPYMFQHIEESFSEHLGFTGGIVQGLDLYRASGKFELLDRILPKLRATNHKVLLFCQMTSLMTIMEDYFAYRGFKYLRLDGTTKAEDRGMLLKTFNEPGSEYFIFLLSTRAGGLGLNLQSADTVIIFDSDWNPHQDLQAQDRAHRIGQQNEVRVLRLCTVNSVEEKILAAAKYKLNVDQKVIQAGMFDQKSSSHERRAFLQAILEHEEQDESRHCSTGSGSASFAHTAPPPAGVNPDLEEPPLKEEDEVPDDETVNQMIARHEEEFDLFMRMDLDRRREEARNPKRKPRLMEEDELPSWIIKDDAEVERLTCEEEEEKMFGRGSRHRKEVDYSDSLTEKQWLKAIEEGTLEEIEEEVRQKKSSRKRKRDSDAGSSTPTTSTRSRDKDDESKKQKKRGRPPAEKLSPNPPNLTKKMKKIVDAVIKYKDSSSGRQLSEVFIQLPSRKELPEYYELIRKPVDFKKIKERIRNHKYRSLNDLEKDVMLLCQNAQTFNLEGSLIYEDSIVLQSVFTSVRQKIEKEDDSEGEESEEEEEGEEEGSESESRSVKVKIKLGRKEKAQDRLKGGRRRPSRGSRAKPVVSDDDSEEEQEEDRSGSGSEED
Sequence of BRM (P51531 whole entry): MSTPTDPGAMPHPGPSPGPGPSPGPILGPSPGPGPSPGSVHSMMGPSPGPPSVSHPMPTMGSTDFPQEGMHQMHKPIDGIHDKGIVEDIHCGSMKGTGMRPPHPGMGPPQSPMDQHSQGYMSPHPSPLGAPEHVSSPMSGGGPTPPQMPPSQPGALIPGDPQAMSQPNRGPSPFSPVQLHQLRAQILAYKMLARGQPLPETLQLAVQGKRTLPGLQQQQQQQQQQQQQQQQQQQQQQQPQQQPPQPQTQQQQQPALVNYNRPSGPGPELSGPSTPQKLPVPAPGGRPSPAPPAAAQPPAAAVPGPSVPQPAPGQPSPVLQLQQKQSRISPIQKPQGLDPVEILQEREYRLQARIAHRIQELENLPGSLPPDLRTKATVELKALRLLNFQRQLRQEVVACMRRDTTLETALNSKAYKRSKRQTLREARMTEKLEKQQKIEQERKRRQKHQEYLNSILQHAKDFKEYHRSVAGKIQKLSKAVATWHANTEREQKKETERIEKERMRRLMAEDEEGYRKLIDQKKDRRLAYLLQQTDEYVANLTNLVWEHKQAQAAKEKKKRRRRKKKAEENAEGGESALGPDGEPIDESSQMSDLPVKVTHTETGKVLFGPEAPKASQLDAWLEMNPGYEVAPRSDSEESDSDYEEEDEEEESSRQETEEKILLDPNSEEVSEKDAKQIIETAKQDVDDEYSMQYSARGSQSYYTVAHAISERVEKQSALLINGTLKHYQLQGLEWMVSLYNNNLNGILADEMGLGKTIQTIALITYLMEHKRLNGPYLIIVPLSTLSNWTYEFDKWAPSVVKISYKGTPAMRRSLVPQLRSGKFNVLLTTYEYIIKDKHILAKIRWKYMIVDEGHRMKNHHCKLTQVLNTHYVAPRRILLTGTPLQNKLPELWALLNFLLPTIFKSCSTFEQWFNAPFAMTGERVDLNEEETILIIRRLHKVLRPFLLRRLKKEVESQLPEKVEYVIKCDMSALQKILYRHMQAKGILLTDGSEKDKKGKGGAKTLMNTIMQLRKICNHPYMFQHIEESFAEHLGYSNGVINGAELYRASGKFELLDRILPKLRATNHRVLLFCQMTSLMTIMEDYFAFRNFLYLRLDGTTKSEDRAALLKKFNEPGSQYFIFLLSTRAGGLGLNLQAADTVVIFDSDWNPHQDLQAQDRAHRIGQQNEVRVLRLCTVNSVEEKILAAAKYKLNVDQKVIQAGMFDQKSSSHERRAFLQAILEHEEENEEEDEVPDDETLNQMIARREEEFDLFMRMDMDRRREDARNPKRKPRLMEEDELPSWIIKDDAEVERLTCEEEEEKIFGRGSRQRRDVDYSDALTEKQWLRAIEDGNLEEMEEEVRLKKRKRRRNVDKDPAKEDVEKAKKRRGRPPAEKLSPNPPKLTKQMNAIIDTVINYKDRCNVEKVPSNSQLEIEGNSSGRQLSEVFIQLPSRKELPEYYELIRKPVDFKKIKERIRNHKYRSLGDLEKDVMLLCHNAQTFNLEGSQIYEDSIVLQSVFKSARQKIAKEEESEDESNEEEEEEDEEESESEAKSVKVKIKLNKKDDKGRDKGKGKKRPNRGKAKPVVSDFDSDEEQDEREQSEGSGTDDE

Compound	BRM Max % Inhibition (BRM) [%]	IC50 (BRM) [µM]	IC50 (BRG-1) [µM]	Emax (BRG-1) [%]	BRM Max % Inhibition (BRM; 30 nM BRM, 400 μM ATP) [%]	IC50 (BRM; 30 nM BRM, 400 μM ATP) [µM]	IC50 (BRG-1; 30 nM BRG-1, 400 μM ATP) [µM]	Emax (BRG-1; 30 nM BRG-1, 400 μM ATP) [%]
Cn1ccc(-c2cccc(-c3csc(NC(=O)CNC(=O)c4ccc5c(c4)[C@@](C)(CO)CC5)n3)n2)n1 [Compound 192, (3S)-3-(hydroxymethyl)-3-methyl-N-[2-[[4-[6-(1-methylpyrazol-3-yl)-2-pyridyl]thiazol-2-yl]amino]-2-oxo-ethyl]indane-5-carboxamide]	>90	0.1 to 1	1 to 5	> 60				
Cn1ccc2ccc(-c3csc(NC(=O)CNC(=O)c4cccc(C(C)(C)CN)c4)n3)cc2c1=O [Compound 67, 3-(1-amino-2-methylpropan-2-yl)-N-(2-((4-(2-methyl-1-oxo-1,2-dihydroisoquinolin-7-yl)thiazol-2-yl)amino)-2-oxoethyl)benzamide]	>70	1 to 5	1 to 5	> 40				
C[C@@H]1CN(c2cccc(-c3csc(NC(=O)CNC(=O)c4ccc5c(c4)[C@](C)(CO)CCO5)n3)c2)C[C@H](C)O1 [Compound 165, (R)-N-(2-((4-(3-((cis)-2,6-dimethylmorpholino)phenyl)thiazol-2-yl)amino)-2-oxoethyl)-4-(hydroxymethyl)-4-methylchroman-6-carboxamide]	>90	0.1 to 1	> 5	< 40				
Cc1cc(C(=O)NCC(=O)Nc2nc(-c3cccc(-c4ccncc4)c3)cs2)cc(C(C)(C)CN)c1 [Compound 63, 3-(1-amino-2-methylpropan-2-yl)-5-methyl-N-(2-oxo-2-((4-(3-(pyridin-4-yl)phenyl)thiazol-2-yl)amino)ethyl)benzamide]	>80	1 to 5	> 5	> 60				
Cc1cc(-c2cccc(-c3csc(NC(=O)CNC(=O)c4ccc5c(c4)[C@](C)(CO)CCC5)n3)c2)cc(C)n1 [Compound 232, (R)-N-(2-((4-(3-(2,6-dimethylpyridin-4-yl)phenyl)thiazol-2-yl)amino)-2-oxoethyl)-8-(hydroxymethyl)-8-methyl-5,6,7,8-tetrahydronaphthalene-2-carboxamide]	>95	< 0.1	0.1 to 1	> 80				
CCc1ccc(C(=O)NCC(=O)Nc2nc(-c3cccc(-c4ccn(C)n4)c3)cs2)cc1C(C)(C)CN [Compound 71, 3-(1-amino-2-methylpropan-2-yl)-4-ethyl-N-(2-((4-(3-(1-methyl-1H-pyrazol-3-yl)phenyl)thiazol-2-yl)amino)-2-oxoethyl)benzamide]	>70	1 to 5	> 5	> 30				
CC(C)(CN)c1cccc(C(=O)NCC(=O)Nc2nc(-c3cccc(-c4cc(Cl)cc(Cl)c4)c3)cs2)c1 [Compound 51, 3-(1-amino-2-methylpropan-2-yl)-N-(2-((4-(3′,5′-dichloro-[1,1′-biphenyl]-3-yl)thiazol-2-yl)amino)-2-oxoethyl)benzamide]	>80	0.1 to 1	> 5	> 50				
C[C@@H]1CN(c2cccc(-c3csc(NC(=O)CNC(=O)c4cccc([C@]5(F)C[C@@](C)(O)C5)c4)n3)c2)C[C@H](C)O1 [Compound 317, N-(2-((4-(3-((cis)-2,6-dimethylmorpholino)phenyl)thiazol-2-yl)amino)-2-oxoethyl)-3-((1s,3s)-1-fluoro-3-hydroxy-3-methylcyclobutyl)benzamide]	>95	< 0.1	1 to 5	> 95				
CC(C)S(=O)(=O)c1cccc(C(=O)NCC(=O)Nc2nc(-c3cccc(-c4ccnc(C(F)(F)F)c4)c3)cs2)c1 [Compound 19, 3-(isopropylsulfonyl)-N-(2-oxo-2-((4-(3-(2-(trifluoromethyl)pyridin-4-yl)phenyl)thiazol-2-yl)amino)ethyl)benzamide]	>90	0.1 to 1	1 to 5					
Cc1cc(-c2cccc(-c3csc(NC(=O)CNC(=O)c4ccc5c(c4)[C@@](C)(CN)CCC5)n3)c2)cc(C)n1 [Compound 251, (4S)-4-(aminomethyl)-N-[2-[[4-[3-(2,6-dimethyl-4-pyridyl)phenyl]thiazol-2-yl]amino]-2-oxo-ethyl]-4-methyl-tetralin-6-carboxamide]	>50	1 to 5	> 5	< 30				
Cc1cc(-c2cccc(-c3csc(NC(=O)CNC(=O)c4cccc(C(C)(C)C(C)C)c4)n3)c2)cc(C)n1 [Compound 90]	>60	1 to 5	> 5	< 30				
C[C@@H]1CN(c2cccc(-c3csc(NC(=O)CNC(=O)c4ccc5c(c4)[C@@]4(CCO4)COC5)n3)n2)C[C@H](C)O1 [Compound 350, (S)-N-(2-((4-(6-((cis)-2,6-dimethylmorpholino)pyridin-2-yl)thiazol-2-yl)amino)-2-oxoethyl)spiro[isochromane-4,2′-oxetane]-6-carboxamide]	>95	< 0.1	1 to 5	> 95				
C[C@@H]1CN(c2cccc(-c3csc(NC(=O)CNC(=O)c4ccc5c(c4)[C@@](C)(CO)CN5C)n3)c2)C[C@H](C)O1 [Compound 404, (R)-N-(2-((4-(3-((cis)-2,6-dimethylmorpholino)phenyl)thiazol-2-yl)amino)-2-oxoethyl)-3-(hydroxymethyl)-1,3-dimethylindoline-5-carboxamide]	>80	0.1 to 1	> 5	> 80				
C[C@@H]1CN(c2cccc(-c3csc(NC(=O)CNC(=O)c4cc(C(C)(C)C)ccn4)n3)c2)C[C@H](C)O1 [Compound 202, 4-tert-butyl-N-[2-[[4-[3-[(cis)-2,6-dimethylmorpholin-4-yl]phenyl]thiazol-2-yl]amino]-2-oxo-ethyl]pyridine-2-carboxamide]	>90	0.1 to 1	1 to 5	> 80				
C[C@@]1(F)COCc2ccc(C(=O)NCC(=O)Nc3nc(-c4cccc(C(F)F)n4)cs3)cc21 [Compound 331, (S)-N-(2-((4-(6-(difluoromethyl)pyridin-2-yl)thiazol-2-yl)amino)-2-oxoethyl)-4-fluoro-4-methylisochromane-6-carboxamide]	>95	< 0.1	0.1 to 1	> 95				
C[C@]1(CN)CCc2c(C(=O)NCC(=O)Nc3nc(-c4cccc(-c5ccncc5)c4)cs3)cccc21 [Compound 243, (1S)-1-(aminomethyl)-1-methyl-N-[2-oxo-2-[[4-[3-(4-pyridyl)phenyl]thiazol-2-yl]amino]ethyl]indane-4-carboxamide]	>80	0.1 to 1	1 to 5	> 50				
C[C@H](N)C(C)(C)c1cccc(C(=O)NCC(=O)Nc2nc(-c3cccc(-c4ccncc4)c3)cs2)c1 [Compound 91]	>50	1 to 5	> 5	> 30				
C[C@@H]1CN(c2cccc(-c3csc(NC(=O)CNC(=O)c4ccc5c(c4)[C@](C#N)(CO)CC5)n3)n2)C[C@H](C)O1 [Compound 159, (R)-3-cyano-N-(2-((4-(6-((cis)-2,6-dimethylmorpholino)pyridin-2-yl)thiazol-2-yl)amino)-2-oxoethyl)-3-(hydroxymethyl)-2,3-dihydro-1H-indene-5-carboxamide]	>95	< 0.1	< 0.1	> 95				
C[C@@H]1CN(c2cccc(-c3csc(NC(=O)CNC(=O)c4ccc5c(c4)CCCCO5)n3)n2)C[C@H](C)O1 [Compound 338, N-(2-((4-(6-((cis)-2,6-dimethylmorpholino)pyridin-2-yl)thiazol-2-yl)amino)-2-oxoethyl)-2,3,4,5-tetrahydrobenzo[b]oxepine-7-carboxamide]	>90	0.1 to 1	0.1 to 1	> 90				
Cn1ccc2ccc(-c3csc(NC(=O)CNC(=O)c4ccc5c(c4)[C@](C)(CO)CC5)n3)cc2c1=O [Compound 177, (R)-3-(hydroxymethyl)-3-methyl-N-(2-((4-(2-methyl-1-oxo-1,2-dihydroisoquinolin-7-yl)thiazol-2-yl)amino)-2-oxoethyl)-2,3-dihydro-1H-indene-5-carboxamide]	>95	< 0.1	0.1 to 1	> 90				
C[C@@H]1CN(c2cccc(-c3csc(NC(=O)CNC(=O)c4ccc5c(c4)[C@](C)(O)COC5)n3)c2)C[C@H](C)O1 [Compound 438, (S)-N-(2-((4-(3-((cis)-2,6-dimethylmorpholino)phenyl)thiazol-2-yl)amino)-2-oxoethyl)-4-hydroxy-4-methylisochromane-6-carboxamide]					>95	0.1 to 1	1 to 5	> 95

From patent US12685735B2 (Foghorn Therapeutics Inc., priority 2020, dated 2026)
